# Measurements taken from publication PMC9814205, “Targeting undruggable carbohydrate recognition sites through focused fragment library design” (Communications Chemistry, 2022).
# Entries after “also recorded” stand apart in the source; their conditions may differ.
# Columns and labels:
# Langerin and DC-SIGN = conditions: cited from earlier work
# DC-SIGN = conditions: stated in SI text, method and reference not given; cited from earlier work
# LecA [1] = molecular target: T1, LecA (Pseudomonas aeruginosa, UniProt Q05097); conditions: positive control in FP assay, unit inferred; cited from earlier work
# T1 construct: made in house
# T1 sequence (Q05097 whole entry): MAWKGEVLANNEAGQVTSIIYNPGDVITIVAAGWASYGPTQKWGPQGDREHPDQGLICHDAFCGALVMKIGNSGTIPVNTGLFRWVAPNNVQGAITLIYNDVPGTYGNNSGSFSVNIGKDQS
# 5FW LecA (PA-IL) = molecular target: T2, 5FW LecA (PA-IL) (Pseudomonas aeruginosa, UniProt Q05097); assay: PrOF NMR with 5-fluorotryptophan-labeled LecA; format: binding
# T2 construct: made in house
# T2 sequence (Q05097 2-122): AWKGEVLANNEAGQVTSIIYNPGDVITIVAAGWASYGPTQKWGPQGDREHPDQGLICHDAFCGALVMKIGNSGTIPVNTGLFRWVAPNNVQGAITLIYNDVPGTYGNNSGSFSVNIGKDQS
# Protocol: PrOF NMR was performed as reported previously. Briefly, 150 µM 5FW LecA was recorded alone and in the presence of DMSO or 2–4 mM compounds in TBS/Ca^2+ buffer. The difference in chemical shift perturbations of W42 in 5FW LecA free vs bound forms was followed to determine Kd values of compounds. The Kd values were calculated according to the one-site-binding model in Origin(Pro) 2020b (OriginLab Corp., USA) from two or three independent titrations. Ligand efficiency values were calculated according to Eq. (1) for a temperature of 310 K.
# DC-SIGN CRD (CD209) = molecular target: T3, DC-SIGN CRD (CD209) (Homo sapiens, UniProt Q9NNX6); assay: 1H-15N HSQC NMR with 15N DC-SIGN CRD; format: binding
# T3 construct: the carbohydrate recognition domain (CRD) of DC-SIGN in ^1H-^15N HSQC/TROSY NMR experiments; made in house
# T3 sequence (Q9NNX6 263-378 limits assumed): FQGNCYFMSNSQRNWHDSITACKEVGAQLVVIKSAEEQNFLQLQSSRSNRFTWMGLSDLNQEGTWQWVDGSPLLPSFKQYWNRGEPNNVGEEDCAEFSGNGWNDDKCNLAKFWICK
# Protocol: (§1) The ^1H-^15N TROSY pulse sequence trosyf3gpphsi19 with 128 increments and 32 scans per increment was applied for 0.15 mM ^15N LecA and 0.07 mM LecB in HBS/Ca^2+ buffer (20 mM HEPES pH 7.4, 150 mM NaCl, 10 mM CaCl2, 10% D2O and 100 µM sodium trimethylsilylpropanesulfonate (DSS) as internal reference) at 310 K. The ^1H-^15N HSQC pulse sequence hsqcf3gpph19 with 128 increments and 8 scans per increment was applied for 0.1 mM ^15N DC-SIGN and Langerin CRD in HBS/Ca^2+ buffer at 298 K. For screening of 650 non-fluorinated fragments of the general library against ^15N LecA, a mix of 10 compounds at 1 mM each was combined with 0.15 mM ^15N LecA in HBS/Ca^2+ buffer (20 mM HEPES pH 7.4, 150 mM NaCl, 10 mM CaCl2, 10% D2O and 100 µM sodium trimethylsilylpropanesulfonate (DSS) as internal reference, whereas the fragments with the MBP scaffolds were validated separately at 1 mM. Similarly, 9 nonfluorinated fragments from the MBP library were screened against ^15N-labeled DC-SIGN, LecA and LecB. To validate the fragment binding to proteins, we recorded ^1H-^15N HSQC and TROSY NMR of proteins in the presence of DMSO as negative control and 2 mM fragments in HBS/Ca^2+ buffer. Natural ligands were used as positive controls at 1 mM MeGal, MeFuc and 30 mM D-mannose to LecA/LecB and DC-SIGN CRD/Langerin CRD, respectively. Titration experiments with ^15N-labeled DC-SIGN CRD or LecB were recorded in HBS/Ca^2+ buffer with 30 mM CaCl2 and 0.25 to 4–8 mM malonic acid derivatives. The Kd values were calculated according to the one-site-binding model in Origin(Pro) 2020b (OriginLab Corp., USA). Ligand efficiency calculations were done according to Eq. (1) for a temperature of 298 K and 310 K for DC-SIGN CRD and LecB, respectively.1 LE=RTlnKd/HA, with the temperature T [K], the gas constant R [kcal mol^−1 K^−1], and the number of non-hydrogen atoms HA[56].
# All data were processed with NMRpipe[65] and analyzed with CcpNmr analysis. For data analysis, the protein fingerprint of ^15N DC-SIGN (Table S7) or Langerin CRD was assigned as reported previously. The ^1H-^15N TROSY resonances of ^15N LecA and ^15N LecB were indexed with IDs due to a lack of protein backbone resonance assignment (Tables S8-S9). Next, resonance IDs from protein spectra were transferred to the spectra obtained in the presence of compounds in order to compare the changes in chemical shift perturbations for the fast exchange peaks. The changes in chemical shift perturbations (CSPs) were calculated according to Eq. (2):2 △δ=1/2△δH2+α△δN^2 in which δ is the difference in chemical shift (in ppm) and α is an empirical weighting factor of 0.14 for all amino acid backbone resonances. The threshold value was set based on three independent measurements of reference spectra to 0.01 ppm for LecA, LecB, DC-SIGN CRD and Langerin CRD.
# LecB (PA-IIL) = molecular target: T4, LecB (PA-IIL) (Pseudomonas aeruginosa, UniProt Q9HYN5); assay: 1H-15N TROSY NMR with 15N LecB; format: binding
# T4 construct: made in house
# T4 sequence (Q9HYN5 entry or part of it): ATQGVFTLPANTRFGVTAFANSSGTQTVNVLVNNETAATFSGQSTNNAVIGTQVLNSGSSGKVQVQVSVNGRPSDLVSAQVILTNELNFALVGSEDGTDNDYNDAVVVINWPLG
# Protocol: as §1, with “Ligand efficiency calculations were done according to Eq. (1) for a temperature of 298 K and 310 K for DC-SIGN CRD and LecB, respectively.1 LE=RTlnKd/HA, with the temperature T [K], the gas constant R [kcal mol^−1 K^−1], and the number of non-hydrogen atoms HA[56].” left out
# All data were processed with NMRpipe[65] and analyzed with CcpNmr analysis. […] The changes in chemical shift perturbations (CSPs) were calculated according to Eq. (2):2 △δ=1/2△δH2+α△δN^2 in which δ is the difference in chemical shift (in ppm) and α is an empirical weighting factor of 0.14 for all amino acid backbone resonances. […]
# DC-SIGN^+ Raji cells = molecular target: T5, DC-SIGN^+ Raji cells (Homo sapiens, UniProt Q9NNX6); assay: cellFy cell-based assay, FITC-dextran binding by flow cytometry; conditions: D-mannose positive control
# T5 construct: expressed in transfected cells; host or cells: Raji cells (DC-SIGN+)
# T5 sequence (Q9NNX6 1-404): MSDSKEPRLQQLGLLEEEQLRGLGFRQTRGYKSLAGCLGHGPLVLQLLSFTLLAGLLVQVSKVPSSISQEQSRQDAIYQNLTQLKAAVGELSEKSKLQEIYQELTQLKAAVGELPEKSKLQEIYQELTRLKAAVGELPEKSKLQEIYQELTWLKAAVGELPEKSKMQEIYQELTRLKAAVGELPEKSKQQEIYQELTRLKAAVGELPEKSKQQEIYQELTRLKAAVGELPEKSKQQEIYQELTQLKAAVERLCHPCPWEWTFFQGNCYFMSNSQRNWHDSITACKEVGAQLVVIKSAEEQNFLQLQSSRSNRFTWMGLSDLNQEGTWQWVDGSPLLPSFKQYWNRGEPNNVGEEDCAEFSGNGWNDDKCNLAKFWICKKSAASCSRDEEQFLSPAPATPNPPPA
# Protocol: (§2) The cellFy experiments using Langerin^+ and DC-SIGN^+ Raji cell lines were performed as described before. Briefly, 50k cells were plated in a 96-well plate (clear, round bottom; Greiner Bio-One and mixed with varying concentrations of malonates 58, D-mannose and 0.025 mg mL^−1 FITC-conjugated dextran (500 kDa, Sigma Aldrich) in a final volume of 50 µL following incubation for 30 min on ice. After centrifugation at 500 g for 3 min at 4 °C, the supernatant was discarded. After washing cells were treated with 50 µL 4 % paraformaldehyde (Roti-Histofix, Carl Roth) for 20 min on ice and resuspended in 100 µL fresh culture medium. The fluorescence of cells was measured by flow cytometry (MACSQuant Analyzer 16). Data was analyzed in FlowJo.
# Raji cells = assay: Cytotoxicity observed in cellFy; format: cell-based; conditions: at low concentrations; up to 10 mM
# Protocol: as §2
# LecA [2] = molecular target: T1, LecA; conditions: carbohydrate ligand; cited from earlier work
smiles,measurement,setting,value
OC[C@H]1OC(O)[C@@H](O)[C@@H](O)[C@@H]1O (stereo partly drawn) [D-mannose],Kd,Langerin and DC-SIGN,3.5 to 6.1 mM
same,Kd,DC-SIGN,3 mM
CC(=O)N[C@H]1C(O)O[C@H](CO)[C@H](O)[C@@H]1O (some centres unmarked) [GalNAc],IC50,LecA [1],1.23 ± 0.2 mM
O=C(O)C(C(=O)O)C1CCC(F)(F)C1 (centres unmarked) [compound 58],binding to 5FW LecA (perturbation of W42) in PrOF NMR,5FW LecA (PA-IL); 2 mM compound,perturbed W42
same,W2 [ppm],"5FW LecA (PA-IL); 19F resonance of 0.15 mM 5FW LecA with 2 mM compound, DMSO 121.43",121.47 ppm
same,W33 [ppm],"5FW LecA (PA-IL); 19F resonance of 0.15 mM 5FW LecA with 2 mM compound, DMSO 121.67",121.77 ppm
same,W84 [ppm],"5FW LecA (PA-IL); 19F resonance of 0.15 mM 5FW LecA with 2 mM compound, DMSO 123.50",123.53 ppm
same,Kd,"DC-SIGN CRD (CD209); 15N DC-SIGN CRD, titration, one-site binding model, 30 mM CaCl2",1.2 ± 0.5 mM
same,LE,"DC-SIGN CRD (CD209); ligand efficiency calculated from Kd for DC-SIGN CRD, 298 K",0.28 kcal mol^−1 HA^−1
same,Kd,LecB (PA-IIL),1.2 ± 0.4 mM
same,LE,"LecB (PA-IIL); ligand efficiency calculated from Kd for LecB, 310 K",0.29 kcal mol^−1 HA^−1
same,inhibition of FITC-dextran binding / binding to DC-SIGN^+ cells,DC-SIGN^+ Raji cells,inhibited FITC-dextran binding to DC-SIGN similarly to D-mannose; also recorded: specifically bound to DC-SIGN^+ cells
same,cytotoxicity,Raji cells,negligible cytotoxicity; also recorded: low cytotoxicity
OC[C@H]1O[C@H](O)[C@H](O)[C@@H](O)[C@H]1O [α-D-galactose],Kd,LecA [2],50 µM
